Test results as given in BindingDB's records for doi:10.1021/acs.jnatprod.9b01022 (Taipei Chang Gung Memorial Hospital, 2020).

Legend:
[1] = Reversal of human ABCC1-mediated multidrug resistance in HEK293/MRP1 cells assessed as effect on etoposide-induced cytotoxicity by measuring etoposide IC50 at 1 uM after 72 hrs by CCK8 assay (Rvb = 63.34 +/- 7.92 uM)
[2] = Reversal of human ABCC1-mediated multidrug resistance in HEK293/MRP1 cells assessed as effect on etoposide-induced cytotoxicity by measuring etoposide IC50 at 2 uM after 72 hrs by CCK8 assay (Rvb = 63.34 +/- 7.92 uM)
[3] = Reversal of human ABCC1-mediated multidrug resistance in HEK293/MRP1 cells assessed as effect on etoposide-induced cytotoxicity by measuring etoposide IC50 at 3 uM after 72 hrs by CCK8 assay (Rvb = 63.34 +/- 7.92 uM)
[4] = Reversal of human ABCC1-mediated multidrug resistance in HEK293/MRP1 cells assessed as effect on etoposide-induced cytotoxicity by measuring etoposide IC50 at 0.5 uM after 72 hrs by CCK8 assay (Rvb = 63.34 +/- 7.92 uM)
[5] = Reversal of human ABCG2-mediated multidrug resistance in HEK293/R482 cells assessed as effect on topotecan-induced cytotoxicity by measuring topotecan IC50 at 1 uM after 72 hrs by CCK8 assay (Rvb = 201.31 +/- 25.89 nM)
[6] = Reversal of human ABCG2-mediated multidrug resistance in HEK293/R482 cells assessed as effect on topotecan-induced cytotoxicity by measuring topotecan IC50 at 2 uM after 72 hrs by CCK8 assay (Rvb = 201.31 +/- 25.89 nM)
[7] = Reversal of human ABCG2-mediated multidrug resistance in HEK293/R482 cells assessed as effect on topotecan-induced cytotoxicity by measuring topotecan IC50 at 3 uM after 72 hrs by CCK8 assay (Rvb = 201.31 +/- 25.89 nM)
[8] = Reversal of human ABCG2-mediated multidrug resistance in HEK293/R482 cells assessed as effect on topotecan-induced cytotoxicity by measuring topotecan IC50 at 0.5 uM after 72 hrs by CCK8 assay (Rvb = 201.31 +/- 25.89 nM)
[9] = Reversal of human ABCG2-mediated multidrug resistance in HEK293/R482 cells assessed as effect on mitoxantrone-induced cytotoxicity by measuring mitoxantrone IC50 at 1 uM after 72 hrs by CCK8 assay (Rvb = 50.66 +/- 6.88 nM)
[10] = Reversal of human ABCG2-mediated multidrug resistance in HEK293/R482 cells assessed as effect on mitoxantrone-induced cytotoxicity by measuring mitoxantrone IC50 at 2 uM after 72 hrs by CCK8 assay (Rvb = 50.66 +/- 6.88 nM)
[11] = Reversal of human ABCG2-mediated multidrug resistance in HEK293/R482 cells assessed as effect on mitoxantrone-induced cytotoxicity by measuring mitoxantrone IC50 at 3 uM after 72 hrs by CCK8 assay (Rvb = 50.66 +/- 6.88 nM)
[12] = Reversal of human ABCG2-mediated multidrug resistance in HEK293/R482 cells assessed as effect on mitoxantrone-induced cytotoxicity by measuring mitoxantrone IC50 at 0.5 uM after 72 hrs by CCK8 assay (Rvb = 50.66 +/- 6.88 nM)
[13] = Reversal of ABCG2 (unknown origin)-mediated multidrug resistance in human S1-M1-80 cells assessed as effect on topotecan-induced cytotoxicity by measuring topotecan IC50 at 1 uM after 72 hrs by MTT assay (Rvb = 10.14 +/- 2.820 uM)
[14] = Reversal of ABCG2 (unknown origin)-mediated multidrug resistance in human S1-M1-80 cells assessed as effect on topotecan-induced cytotoxicity by measuring topotecan IC50 at 2 uM after 72 hrs by MTT assay (Rvb = 10.14 +/- 2.820 uM)
[15] = Reversal of ABCG2 (unknown origin)-mediated multidrug resistance in human S1-M1-80 cells assessed as effect on topotecan-induced cytotoxicity by measuring topotecan IC50 at 3 uM after 72 hrs by MTT assay (Rvb = 10.14 +/- 2.820 uM)
[16] = Reversal of ABCG2 (unknown origin)-mediated multidrug resistance in human S1-M1-80 cells assessed as effect on topotecan-induced cytotoxicity by measuring topotecan IC50 at 0.5 uM after 72 hrs by MTT assay (Rvb = 10.14 +/- 2.820 uM)
[17] = Reversal of ABCG2 (unknown origin)-mediated multidrug resistance in human H460-MX20 cells assessed as effect on topotecan-induced cytotoxicity by measuring topotecan IC50 at 1 uM after 72 hrs by MTT assay (Rvb = 1319.20 +/- 356.14 nM)
[18] = Reversal of ABCG2 (unknown origin)-mediated multidrug resistance in human H460-MX20 cells assessed as effect on topotecan-induced cytotoxicity by measuring topotecan IC50 at 2 uM after 72 hrs by MTT assay (Rvb = 1319.20 +/- 356.14 nM)
[19] = Reversal of ABCG2 (unknown origin)-mediated multidrug resistance in human H460-MX20 cells assessed as effect on topotecan-induced cytotoxicity by measuring topotecan IC50 at 3 uM after 72 hrs by MTT assay (Rvb = 1319.20 +/- 356.14 nM)
[20] = Reversal of ABCG2 (unknown origin)-mediated multidrug resistance in human S1-M1-80 cells assessed as effect on mitoxantrone-induced cytotoxicity by measuring mitoxantrone IC50 at 1 uM after 72 hrs by MTT assay (Rvb = 73.62 +/- 7.20 uM)
[21] = Reversal of ABCG2 (unknown origin)-mediated multidrug resistance in human S1-M1-80 cells assessed as effect on mitoxantrone-induced cytotoxicity by measuring mitoxantrone IC50 at 2 uM after 72 hrs by MTT assay (Rvb = 73.62 +/- 7.20 uM)
[22] = Reversal of ABCG2 (unknown origin)-mediated multidrug resistance in human S1-M1-80 cells assessed as effect on mitoxantrone-induced cytotoxicity by measuring mitoxantrone IC50 at 3 uM after 72 hrs by MTT assay (Rvb = 73.62 +/- 7.20 uM)
[23] = Reversal of ABCG2 (unknown origin)-mediated multidrug resistance in human H460-MX20 cells assessed as effect on topotecan-induced cytotoxicity by measuring topotecan IC50 at 0.5 uM after 72 hrs by MTT assay (Rvb = 1319.20 +/- 356.14 nM)
[24] = Reversal of ABCG2 (unknown origin)-mediated multidrug resistance in human S1-M1-80 cells assessed as effect on mitoxantrone-induced cytotoxicity by measuring mitoxantrone IC50 at 0.5 uM after 72 hrs by MTT assay (Rvb = 73.62 +/- 7.20 uM)
[25] = Reversal of ABCG2 (unknown origin)-mediated multidrug resistance in human H460-MX20 cells assessed as effect on mitoxantrone-induced cytotoxicity by measuring mitoxantrone IC50 at 1 uM after 72 hrs by MTT assay (Rvb = 1160.60 +/- 365.72 nM)
[26] = Reversal of ABCG2 (unknown origin)-mediated multidrug resistance in human H460-MX20 cells assessed as effect on mitoxantrone-induced cytotoxicity by measuring mitoxantrone IC50 at 2 uM after 72 hrs by MTT assay (Rvb = 1160.60 +/- 365.72 nM)
[27] = Reversal of ABCG2 (unknown origin)-mediated multidrug resistance in human H460-MX20 cells assessed as effect on mitoxantrone-induced cytotoxicity by measuring mitoxantrone IC50 at 3 uM after 72 hrs by MTT assay (Rvb = 1160.60 +/- 365.72 nM)
[28] = Reversal of ABCG2 (unknown origin)-mediated multidrug resistance in human H460-MX20 cells assessed as effect on mitoxantrone-induced cytotoxicity by measuring mitoxantrone IC50 at 0.5 uM after 72 hrs by MTT assay (Rvb = 1160.60 +/- 365.72 nM)

C=CC(C)(C)c1cc(/C=C/C(=O)c2ccc(O)cc2)c(OC)cc1O [3-(4-hydroxy-2-methoxy-5-(2-methylbut-3-en-2-yl)phenyl)-1-(4-hydroxyphenyl)prop-2-en-1-one]
IC50 [1]: 49300 nM | IC50 [2]: 66600 nM | IC50 [3]: 56500 nM | IC50 [4]: 53600 nM | IC50 [5]: 51 nM | IC50 [6]: 44 nM | IC50 [7]: 42 nM | IC50 [8]: 90 nM | IC50 [9]: 7.1 nM | IC50 [10]: 7.8 nM | IC50 [11]: 6.2 nM | IC50 [12]: 19 nM | IC50 [13]: 610 nM | IC50 [14]: 410 nM | IC50 [15]: 310 nM | IC50 [16]: 1030 nM | IC50 [17]: 144 nM | IC50 [18]: 148 nM | IC50 [19]: 130 nM | IC50 [20]: 6800 nM | IC50 [21]: 2630 nM | IC50 [22]: 1530 nM | IC50 [23]: 367 nM | IC50 [24]: 39500 nM | IC50 [25]: 86 nM | IC50 [26]: 75 nM | IC50 [27]: 70 nM | IC50 [28]: 442 nM
